According to ChEMBL document CHEMBL1149339, “Vasorelaxant activity of cyclic peptide, cyclosquamosin B, from Annona squamosa” (Bioorg Med Chem Lett, 2006):
Calls of active or inactive are those of the source.

Columns and labels:
Type in all cases: functional, organism-based
[1] = species: Rattus norvegicus; assay: Vasorelaxant activity against norepinephrine-induced contraction of rat thoracic aortic ring with endothelium; conditions: Aorta
[2] = species: Rattus norvegicus; assay: Inhibition of norepinephrine-induced contraction in rat aorta mediated by receptor operated calcium channel in presence of nicardipine at 10 uM
[3] = species: Rattus norvegicus; assay: Vasorelaxant activity against norepinephrine-induced contraction of rat thoracic aortic ring without endothelium; conditions: Aorta
[4] = species: Rattus norvegicus; assay: Inhibition of potassium ion depolarized calcium-induced contraction of rat aorta mediated by voltage dependent calcium channel at 10 uM

Measured: Activity

CC[C@@H](C)[C@@H]1NC(=O)[C@@H]2CCCN2C(=O)[C@@H]2CCCN2C(=O)[C@H](CCC(N)=O)NC(=O)[C@H](CCSC)NC(=O)[C@H](CC(C)C)NC(=O)CN(C)C(=O)[C@H]([C@H](C)O)NC1=O
active: all assays above
